Experimental findings from US20120214802A1, “PYRROLIDINE COMPOUNDS WHICH INHIBIT BETA-SECRETASE ACTIVITY AND METHODS OF USE THEREOF” (priority 2009, published 2012) are described below.

Molecules are shown by their SMILES. Read-outs that look alike come from different tables or passages of the source.

A short description of series [1]: Hepatic intrinsic clearance in liver microsomes. As to conditions: human, pH 7.4, human liver microsomes. The class given is in vitro ADME. Here is the method: To 500 μl of 200 mM Na^+K^+phosphate buffer (pH 7.4), 100 μl of 1 mM EDTA solution was added followed by 100 μl of 2 mg protein/ml human liver microsomes. A 10 μl aliquot of test compound (20 mM stock in 50% acetonitrile) was diluted further with 40 μl of H2O (total assay volume […]. Assay mixture is incubated for 5 minutes at 37° C. The assay was initiated by addition of 250 μl of 4 mM NADPH solution. Incubation was continued at 37° C. Separate reaction mixtures were prepared for 0, 5, 10, 20, and 30 min durations. Individual reactions were halted by addition of 150 μl of 100% acetonitrile. Internal standard (10 μl of 100 ng/ml diazepam solution) was added. Concentration of the test compound in each separate reaction was measured using LC/MS/MS and a standard curve for the test compound according to standard procedures.
The hepatic intrinsic clearance in liver microsome was determined by the following procedure described by Davies and Morris (Davies, B. and Morris, T. (19930) Physiological parameters in laboratory animals and humans. Pharm Res. 10:1093-1095) detailing the relationship of in vitro clearance to physiological parameters in animals and human subjects.
The amount of compound remaining at each time point was expressed relative to the amount present in the initial (0 min) incubation. The relationship of relative amount vs. time was used to determine the half life of the compound in the microsome assay. The concentration independent rate constant, k1, was determined from rectangular hyperbolic fit:
where T is time (in minutes), from the relationship of relative amount vs. time. Alternatively, k1 was determined from a transform of the equation, where
Conversion to in vivo clearance was obtained from the relation (Davies and Morris, 1993):
where v=velocity of metabolism, [S] is the concentration of the compound, and volumes are expressed in mL.
For orientation: Liver microsomes are vesicles of endoplasmic reticulum, rich in cytochrome P450 enzymes.

The target of series [2] is T1, memapsin 2 (Cricetulus griseus, UniProt G3IAK4).
T1 construct: endogenous in cells; host or cells: Chinese hamster ovary cells over-expressing human APP695 (London + Swedish)
In words: Cellular Aβ IC50 determination (Aβ40 sandwich ELISA). The class given is cell-based, Chinese hamster. The following applies: CHO cells over-expressing human APP695 with London and Swedish mutations, 24 h, read-out: M2 IC50. Here is the method:
The potency of compounds against memapsin 2 activity was determined in a cellular assay of Aβ production. […] Chinese hamster ovary cells that over-express human APP695 with the London and Swedish mutations were seeded in multi-well plates at 10% confluency. Compounds are dissolved in DMSO to concentrations near 1 mM, and diluted into culture media to a final concentration near 4 μM (final 0.4% DMSO). Compounds were diluted serially and applied to cells in multi-well plates 48 h after seeding. Incubation was continued in 5% CO2 at 37° C. for 24 h. Aliquots were removed and assayed for […] using a sandwich ELISA (BioSource International). Amount of Aβ40 over the range of concentration of compounds, relative to control incubations, were fit to a 4-parameter IC50 model.
A general note: An ELISA detects its analyte on a solid surface through an enzyme-linked reagent.

Another series addresses T2, CYP3A4 (Homo sapiens, UniProt P08684).
T2 construct: host or cells: human liver microsomes
Put plainly: CYP3A4 inhibition (midazolam metabolism in human liver microsomes). The class given is in vitro ADME. The following applies: substrate midazolam. Here is the method: To evaluate the drug-drug interaction potential for compounds, the potency to inhibit the major metabolic cytochrome CYP450 isoform 3A4 was assessed. The inhibition constant Ki was determined for inhibition of the metabolism of midazolam, a CYP3A4 substrate.
CYP3A4 Ki assays were performed following a recently published protocol with slight modifications (Di, L., Kerns, E. H., Li, S. Q., and Carter, G. T. (2007) Comparison of cytochrome P450 inhibition assays for drug discovery using human liver microsomes with LC-MS, rhCYP450 isozymes with fluorescence, and double cocktail with LC-MS. International Journal of Pharmaceutics 335: 1-11). The P450 inhibition assay was performed in 96-well plates at 37.2° C. in a shaking incubator. The compounds were diluted from 5 mM stocks in 100% DMSO and incubated at seven final concentrations from 0.078 to 10 μM (0.1% DMSO in each final incubation), with human liver microsomes (HLM) at a final protein concentration of 0.1 mg/mL protein and a substrate concentration ranging from 1.25 to 10 μM.
The assay was standardized for both phosphate buffer (100 mM, pH 7.4) and the NADPH regenerating system (MgCl2, 3.3 mM; G6P, 3.3 mM; G6PD, 1 U/ml; NADP+, 1.3 mM). Eight replicate control samples (0.1% DMSO, no compound) were prepared. Assays (200 μL) were set up by mixing HLM+substrate stock, 10 μL of test article in 2% DMSO, and the substrate before initiating the reaction with the addition of the regenerating system mixture. Reactions were quenched following incubation for 20, 30 and 40 minutes as described following.
After incubation for the specified time in a humidified shaking incubator, 20 μL of the reaction mixture was removed and the reactions were terminated by adding 200 μL of cold acetonitrile. Samples were centrifuged at 1000×g for 15 minutes in Solvinert filter plate. The receptor plate was dried via speed vacuum at 40° C. The sample was reconstituted with a reconstitution buffer composed of 10% acetonitrile, 10% DMSO, 80% H2O with an internal standard added at a concentration of 100 ng/ml. MS-Analysis was completed using LC-MS/MS. Formation of 1′-hydroxymidazolam was measured by monitoring a specific SRM (342>203) transition for the CYP3A4 metabolite.
Data were expressed as the relative quantity of midazolam metabolite relative to control incubations. Initial velocities were obtained by multiplying the relative quantity by the initial substrate concentration and dividing by the incubation duration. Data were transformed to inverse of inivital velocity and expressed vs. inhibitor concentration [I] for determination of Ki by the Dixon method (Dixon, M. (1953) Biochemical Journal 55: 170-171) using where intercept [I]=−Ki was determined at multiple substrate concentrations.

The target in series [3] is memapsin 2 (Homo sapiens, UniProt P56817). In words: Inhibition of memapsin 2 beta-secretase activity (fluorogenic substrate FS-2). As to conditions: pH 4, 37° C., read-out: M2 Ki. Format: biochemical. The method, boiled down: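 Memapsin 2 pre-incubated with compound for 20 min at pH 4, 37° C. Reaction started with fluorogenic substrate FS-2, […], derived from Swedish-variant APP beta-secretase site; inhibition measured from fluorescence.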

Setting [4] is: in vitro clearance, read-out: HLM CL.

T1 sequence (G3IAK4 22-501): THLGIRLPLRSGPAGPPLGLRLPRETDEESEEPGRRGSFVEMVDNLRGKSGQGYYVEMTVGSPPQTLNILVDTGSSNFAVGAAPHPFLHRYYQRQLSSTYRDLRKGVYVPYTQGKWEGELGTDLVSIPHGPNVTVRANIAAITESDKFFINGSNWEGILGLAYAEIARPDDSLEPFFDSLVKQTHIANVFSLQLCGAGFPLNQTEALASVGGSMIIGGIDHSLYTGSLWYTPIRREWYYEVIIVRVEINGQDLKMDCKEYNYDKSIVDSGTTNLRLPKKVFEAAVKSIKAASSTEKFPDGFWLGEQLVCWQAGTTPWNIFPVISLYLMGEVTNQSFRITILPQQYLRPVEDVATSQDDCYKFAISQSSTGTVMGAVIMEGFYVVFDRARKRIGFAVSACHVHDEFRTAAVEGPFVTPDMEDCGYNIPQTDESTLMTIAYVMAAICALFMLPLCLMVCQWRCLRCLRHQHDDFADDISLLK
memapsin 2 (Homo sapiens, UniProt P56817), sequence (P56817 46-501): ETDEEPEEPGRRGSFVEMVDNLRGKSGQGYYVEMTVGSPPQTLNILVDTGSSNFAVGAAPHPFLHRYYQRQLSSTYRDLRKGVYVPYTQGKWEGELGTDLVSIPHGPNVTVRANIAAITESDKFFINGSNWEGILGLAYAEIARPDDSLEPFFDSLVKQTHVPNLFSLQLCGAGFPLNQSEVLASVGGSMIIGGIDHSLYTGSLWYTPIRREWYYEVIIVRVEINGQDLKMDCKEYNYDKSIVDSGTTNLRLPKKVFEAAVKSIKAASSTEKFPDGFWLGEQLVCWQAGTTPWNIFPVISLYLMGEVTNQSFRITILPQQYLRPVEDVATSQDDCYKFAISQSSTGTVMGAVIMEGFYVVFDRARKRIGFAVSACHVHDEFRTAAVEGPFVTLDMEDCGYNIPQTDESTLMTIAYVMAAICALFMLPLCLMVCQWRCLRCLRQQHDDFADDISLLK
T2 sequence (P08684 whole entry): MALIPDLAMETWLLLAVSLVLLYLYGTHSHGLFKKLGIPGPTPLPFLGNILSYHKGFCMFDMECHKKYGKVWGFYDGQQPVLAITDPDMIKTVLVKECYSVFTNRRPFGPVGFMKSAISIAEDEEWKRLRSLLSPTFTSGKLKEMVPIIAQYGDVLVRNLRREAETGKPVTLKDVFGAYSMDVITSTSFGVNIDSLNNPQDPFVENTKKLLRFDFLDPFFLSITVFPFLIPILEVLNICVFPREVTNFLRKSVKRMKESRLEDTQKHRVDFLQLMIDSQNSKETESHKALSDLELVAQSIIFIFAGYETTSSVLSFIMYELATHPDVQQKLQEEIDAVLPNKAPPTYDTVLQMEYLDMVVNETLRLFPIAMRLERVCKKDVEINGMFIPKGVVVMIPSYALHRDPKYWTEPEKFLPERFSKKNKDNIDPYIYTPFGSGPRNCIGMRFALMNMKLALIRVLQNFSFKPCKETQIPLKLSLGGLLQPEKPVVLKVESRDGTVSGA

Take `C[C@@H](NC(=O)c1cc(C(=O)N[C@@H](Cc2ccccc2)[C@H](O)[C@H]2CCCN2)cc(N(C)S(C)(=O)=O)c1)c1ccccc1` [1-11, N1-((1R,2S)-1-hydroxy-3-phenyl-1-((R)-pyrrolidin-2-yl)propan-2-yl)-5-(N-methylmethylsulfonamido)-N3-((R)-1-phenylethyl)isophthalamide]: the CLint scaled at 200 μM in series [1] (setting [4]) was less than 400 mL/min/kg. Moreover, the IC50 (usually the concentration needed to halve the response being measured) at memapsin 2 [2] was less than 500 nM. The Ki was greater than 10000 nM at CYP3A4 (read-out: CYP 3A4Ki) and less than 250 nM at memapsin 2 [3].
Regarding `Cc1csc([C@H]2CCCN2C(=O)c2cncc(C(=O)N[C@@H](Cc3ccccc3)[C@H](O)CNCc3cc(Cl)nc(N(C)C)c3)c2)n1` [2-1, N-((2S,3R)-4-((2-chloro-6-(dimethylamino)pyridin-4-yl)methylamino)-3-hydroxy-1-phenylbutan-2-yl)-5-((R)-2-(4-methylthiazol-2-yl)pyrrolidine-1-carbonyl)nicotinamide, reference compound], the CLint scaled at 200 μM in series [1] (setting [4]) is greater than 700 mL/min/kg. Further, the IC50 at memapsin 2 [2] is less than 500 nM. At memapsin 2 [3], the Ki is less than 250 nM.
`Cc1cc(C(=O)N[C@@H](Cc2ccccc2)[C@H](O)CNCc2cncc(C(C)(C)C)c2)cc(C(=O)N2CCC[C@@H]2c2nc(C)co2)c1` [2-3, N-((2S,3R)-4-((5-tert-butylpyridin-3-yl)methylamino)-3-hydroxy-1-phenylbutan-2-yl)-3-methyl-5-((R)-2-(4-methyloxazol-2-yl)pyrrolidine-1-carbonyl)benzamide, reference compound]: the CLint scaled at 200 μM in series [1] (setting [4]) was greater than 700 mL/min/kg; in series [1] (read-out: hepatic intrinsic clearance in liver microsomes (HLMCL)), greater than 1000 mL/min/kg. At memapsin 2 [2], the IC50 was less than 500 nM. The Ki is 717 nM at CYP3A4, less than 1000 nM on CYP3A4 (read-out: CYP 3A4Ki) and less than 250 nM on memapsin 2 [3].
In the case of `Cc1csc([C@H]2CCCN2C(=O)c2cc(F)cc(C(=O)N[C@@H](Cc3ccccc3)[C@H](O)[C@H]3CCCN3)c2)n1` [1-32, 3-fluoro-N-((1R,2S)-1-hydroxy-3-phenyl-1-((R)-pyrrolidin-2-yl)propan-2-yl)-5-((R)-2-(4-methylthiazol-2-yl)pyrrolidine-1-carbonyl)benzamide], the CLint scaled at 200 μM in series [1] (setting [4]) was less than 400 mL/min/kg. Further, the IC50 on memapsin 2 [2] was greater than 1000 nM. The Ki on CYP3A4 (read-out: CYP 3A4Ki) was 5000 to 10000 nM; on memapsin 2 [3], less than 250 nM.
With `Cc1coc([C@H]2CCCN2C(=O)c2cccc(C(=O)N[C@@H](Cc3ccccc3)[C@H](O)CNCc3cncc(C(C)(C)C)c3)c2)n1` [2-4, N-((2S,3R)-4-((5-tert-butylpyridin-3-yl)methylamino)-3-hydroxy-1-phenylbutan-2-yl)-3-((R)-2-(4-methyloxazol-2-yl)pyrrolidine-1-carbonyl)benzamide, reference compound], the CLint scaled at 200 μM in series [1] (setting [4]) is greater than 700 mL/min/kg. Besides, the IC50 at memapsin 2 [2] was less than 500 nM. Further, the figures for the Ki on CYP3A4 (read-out: CYP 3A4Ki) and on memapsin 2 [3] were less than 1000 nM and less than 250 nM, respectively.
Regarding `Cc1csc(CN(C)C(=O)c2cc(C(=O)N[C@@H](Cc3ccccc3)[C@H](O)[C@H]3CCCN3)cc(-c3ncco3)c2)n1` [1-15, N1-((1R,2S)-1-hydroxy-3-phenyl-1-((R)-pyrrolidin-2-yl)propan-2-yl)-N3-methyl-N3-((4-methylthiazol-2-yl)methyl)-5-(oxazol-2-yl)isophthalamide], the CLint scaled at 200 μM in series [1] (setting [4]) was less than 400 mL/min/kg. Also, the IC50 at memapsin 2 [2] is less than 500 nM. The results for the Ki on CYP3A4 (read-out: CYP 3A4Ki) and on memapsin 2 [3] were 5000 to 10000 nM and less than 250 nM, respectively.
Taken in the same sequence, the figures for `Cc1coc([C@H]2CCCN2C(=O)c2cc(CF)cc(C(=O)N[C@@H](Cc3ccccc3)[C@H](O)CNCc3cccc(C(C)(C)C)c3)c2)n1` [2-7, N-((2S,3R)-4-(3-tert-butylbenzylamino)-3-hydroxy-1-phenylbutan-2-yl)-3-(fluoromethyl)-5-((R)-2-(4-methyloxazol-2-yl)pyrrolidine-1-carbonyl)benzamide, reference compound] were greater than 700 mL/min/kg, less than 500 nM, 1000 to 5000 nM and less than 250 nM.
For `Cc1csc([C@H]2CCCN2C(=O)c2cccc(C(=O)N[C@@H](Cc3ccccc3)[C@H](O)[C@H]3CCCN3)c2)n1` [1-40, N-((1R,2S)-1-hydroxy-3-phenyl-1-((R)-pyrrolidin-2-yl)propan-2-yl)-3-((R)-2-(4-methylthiazol-2-yl)pyrrolidine-1-carbonyl)benzamide], in series [1] (setting [4]), the CLint scaled at 200 μM was less than 400 mL/min/kg. Moreover, at memapsin 2 [2], the IC50 is 500 to 1000 nM. For the same compound, the Ki is 5000 to 10000 nM at CYP3A4 (read-out: CYP 3A4Ki) and less than 250 nM at memapsin 2 [3].
Regarding `Cc1csc(CN(C)C(=O)c2cc(C(=O)N[C@@H](Cc3ccccc3)[C@H](O)[C@H]3CCCN3)cc(-c3cnco3)c2)n1` [1-12, N1-((1R,2S)-1-hydroxy-3-phenyl-1-((R)-pyrrolidin-2-yl)propan-2-yl)-N3-methyl-N3-((4-methylthiazol-2-yl)methyl)-5-(oxazol-5-yl)isophthalamide], the CLint scaled at 200 μM in series [1] (setting [4]) is less than 400 mL/min/kg. In addition, the concentration for half-maximal inhibition (IC50) at memapsin 2 [2] is greater than 1000 nM. The Ki on memapsin 2 [3] is less than 250 nM.
In the case of `C=C(C)c1cccc(CNC[C@@H](O)[C@H](Cc2ccccc2)NC(=O)c2cccc(C(=O)N3CCC[C@@H]3c3nc(C)co3)c2)c1` [2-6, N-((2S,3R)-3-hydroxy-1-phenyl-4-(3-(prop-1-en-2-yl)benzylamino)butan-2-yl)-3-((R)-2-(4-methyloxazol-2-yl)pyrrolidine-1-carbonyl)benzamide, reference compound], the CLint scaled at 200 μM in series [1] (setting [4]) is greater than 700 mL/min/kg. At memapsin 2 [2], the IC50 was less than 500 nM. Also, at memapsin 2 [3], the Ki is less than 250 nM.
The corresponding values for `Cc1csc([C@H]2CCCN2C(=O)c2cc(C(=O)N[C@@H](Cc3ccccc3)[C@H](O)[C@H]3CCCN3)cc(N3CCCC3=O)c2)n1` [1-39, N-((1R,2S)-1-hydroxy-3-phenyl-1-((R)-pyrrolidin-2-yl)propan-2-yl)-3-((R)-2-(4-methylthiazol-2-yl)pyrrolidine-1-carbonyl)-5-(2-oxopyrrolidin-1-yl)benzamide] are less than 400 mL/min/kg, less than 500 nM and less than 250 nM.
